Reference: article PMC4701221, “Novel Promising Estrogenic Receptor Modulators: Cytotoxic and Estrogenic Activity of Benzanilides and Dithiobenzanilides” (PLoS ONE, 2016)
Residue numbers refer to the chain shown, from its start.

Tests used:
MDA-MB-231 cells = assay: LDH release assay, MDA-MB-231; format: cell-based, human; conditions: 72 h, Fig 2
Method: Cytotoxicity was evaluated by measuring the cell membrane permeability, using a LDH assay kit purchased from Cayman Chemical (Ann Arbor USA). The LDH assay was performed for MCF-7 and MDA-MB-231 cells (seeded at 2×10^4 density). As a positive control cell permeabilization with 1%Triton X-100 was used. The assay was performed 72h after start the incubation. Briefly, the plates were centrifuged at 400 ×g for 5 minutes, and 100 μL of supernatant were transferred from each well to the new 96-well plate and analyzed according to the manufacturer’s protocol. 100 μL of reaction mixture, containing lactic acid, NAD^+, tetrazolium salt and diaphorase, was added to each well. Plates were incubated on an orbital shaker for 30 minutes at room temperature and the absorbance at 490 nm was measured with a plate reader (Biotek Instruments, Elx-800). Results were expressed as a percentage of the total value of the positive control.

ERα W383A = molecular target: T1, ERα W383A (Homo sapiens, UniProt P03372, W383A); assay: Estrogen Receptor luciferase assay in HEK293 cells transfected with ERα W383A; format: cell-based; conditions: HEK293, Fig 6A
T1 construct: expressed in transfected cells; host or cells: HEK293
T1 sequence (P03372 1-595 W383A): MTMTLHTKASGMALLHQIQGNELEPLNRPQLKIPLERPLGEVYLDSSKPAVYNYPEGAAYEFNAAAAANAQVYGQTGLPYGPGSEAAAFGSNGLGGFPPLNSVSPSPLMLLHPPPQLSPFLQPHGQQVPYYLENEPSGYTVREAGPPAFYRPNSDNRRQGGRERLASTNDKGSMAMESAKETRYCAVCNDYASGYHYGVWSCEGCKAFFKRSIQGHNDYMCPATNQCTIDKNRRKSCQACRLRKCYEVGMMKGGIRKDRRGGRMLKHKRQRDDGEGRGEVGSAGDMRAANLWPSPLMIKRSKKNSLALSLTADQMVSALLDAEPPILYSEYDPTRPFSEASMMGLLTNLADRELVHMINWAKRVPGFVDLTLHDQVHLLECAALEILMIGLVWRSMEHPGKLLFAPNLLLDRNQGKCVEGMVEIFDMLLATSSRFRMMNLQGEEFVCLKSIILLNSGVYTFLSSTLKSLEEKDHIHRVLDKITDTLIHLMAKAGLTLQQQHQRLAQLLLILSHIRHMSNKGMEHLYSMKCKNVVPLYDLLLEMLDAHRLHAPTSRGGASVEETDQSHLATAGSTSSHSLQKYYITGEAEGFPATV
Description: (§1) To obtain a eukaryotic vector expressing only the ER-α nuclear receptor, a construct was designed by cloning a KpnI-BamHI fragment from plasmid pEGFP-C1-ERα containing the ERα coding sequence that includes a stop signal into the pEGFP-N3 plasmid (Clontech Laboratories, Palo Alto, CA) under the control of the CMV promoter. […] For mock transfections, pEGFP-N3 plasmid was digested with BglII and NotI and religated after polishing DNA ends to remove GFP coding sequence. Plasmid sequence was confirmed by automatic sequencing. Prior to transfection, cells were seeded in 48 well plates at density of 1.5 x 10^4 cells/well and incubated for 24 h to reach a cell confluence of 80–90%. […] MCF-7 cells, which endogenously express ERα receptor, were transfected with p3xERRE/ERE-luciferase plus the pRLTK Renilla luciferase control plasmid (95:5). Firefly and Renilla luciferase activities were measured using the Dual Luciferase Assay System (Promega, Madison, WI, USA), following a standard protocol using a Sirius L luminometer (Berthold Technologies, Bad Wildbad, Germany). Data were expressed as relative changes in luciferase activity and normalized to 100%.
(§2) Plasmids for the expression of the ERα W383A and ER-α W383S mutated receptors were constructed by the quick change site directed mutagenesis method using plasmid pEGFP-N-ERα as template.

ERα W383S = molecular target: T2, ERα W383S (Homo sapiens, UniProt P03372, W383S); assay: Estrogen Receptor luciferase assay in HEK293 cells transfected with ERα W383S; format: cell-based; conditions: HEK293, Fig 6A
T2 construct: expressed in transfected cells; host or cells: HEK293
T2 sequence (P03372 1-595 W383S): T1 sequence (P03372 1-595 W383A) with A383S
Description: as §1, §2

For `Fc1ccc(NC(=S)c2ccc(NC(=S)c3ccc(F)cc3)cc2)cc1` [Compound 18], which “LDH release, MDA-MB-231” value (MDA-MB-231 cells) is on record?
The value was “non-significant effects”.

And the “Activation of ER dependent transcription, ERα W383A vs wild type” value (ERα W383A)?
The value was “less active”.

And the “Activation of ER dependent transcription, ERα W383S vs wild type” value (ERα W383S)?
The value was “less active”.
